Measured values published in patent publication US11618746B2, “Inhibitors of APOL1 and methods of using same” (Vertex Pharmaceuticals Incorporated, priority 2018, dated 2023).

Target: T1, G1 APOL1 (Homo sapiens, UniProt O14791, I384M/S342G)
T1 construct: expressed in transfected cells
T1 sequence (O14791 28-398 S342G/I384M): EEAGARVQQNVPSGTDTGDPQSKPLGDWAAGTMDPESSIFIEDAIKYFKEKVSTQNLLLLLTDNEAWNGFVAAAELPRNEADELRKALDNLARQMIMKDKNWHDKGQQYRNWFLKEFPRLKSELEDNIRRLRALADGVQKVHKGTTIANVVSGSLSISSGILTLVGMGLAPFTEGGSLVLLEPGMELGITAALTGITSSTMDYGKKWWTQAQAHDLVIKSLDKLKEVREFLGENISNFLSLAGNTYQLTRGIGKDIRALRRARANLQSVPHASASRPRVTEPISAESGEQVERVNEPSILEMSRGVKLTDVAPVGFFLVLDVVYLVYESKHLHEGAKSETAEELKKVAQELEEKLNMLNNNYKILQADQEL
Experiment: Acute APOL1 Thallium Assay with inducible stable clones of HEK 293 cells
Type: cell-based
Conditions: HEK T-Rex tetracycline-inducible cells expressing G1 APOL1 (clone G1 DC3.25); inhibition of thallium flux rate
From the text: Acute APOL1 Thallium Assay with Inducible Stable Clones of HEK 293 Cells
Apolipoprotein L1 (APOL1) proteins form potassium-permeable cation pores in the plasma membrane. APOL1 risk variants (G1 and G2) induce greater potassium flux than G0 in HEK293 cells. This assay exploits the permeability of thallium (T1+) through ligand-gated potassium channels. The dye produces a bright fluorescent signal upon binding to T1+ conducted through potassium channels. The intensity of the T1+ signal is proportional to the number of potassium channels in the open state. Therefore, it provides a functional indication of the potassium channel activities. During the initial dye-loading step, the T1+ indicator dye as an acetoxymethyl (AM) ester enters the cells through passive diffusion. Cytoplasm esterases cleave the AM ester and relieve its active thallium-sensitive form. The cells are then stimulated with T1+. The increase of fluorescence in the assay represents the influx of T1+ into the cell specifically through the potassium channel (i.e. through APOL1 pores), providing a functional measurement of potassium channel/pore activity. The Thallium assay is conducted with cells expressing G1 APOL1.
APOL1 Cell Line (HEK T-Rex Stable Inducible Cell Line) • HEK T-Rex System • Tetracycline (Tet) inducible mammalian expression system. • Stably express the Tet repressor to regulate transcription. • Expression under the full-length CMV promoter. • APOL1 stable inducible cell line Clone used: G1 DC3.25
Tissue Culture Media • Cell Culture Medium • DMEM +10% FBS +P/S +5 μg/mL blasticidin+1 μg/mL puromycin. • 500 mL DMEM +55 mL FBS +5 mL P/S +280 μL blasticidin S HCl (10 mg/mL)+56 μL puromycin (10 mg/mL). • Cell Assay Medium • DMEM with 2% FBS+pen strep.
Instruments and Equipment • Nuaire cell culture hood, Cat. No. 540-600 • 37° C./5% CO2 incubator link to robotic arm, Liconic: STX110 • Molecular Devices FLIPR^Tetra High throughput cellular screening system, Cat. No. FT0324, Molecular Devices • ThermoFisher MultiDrop 384, Cat. No. 5840300 • Biotek Microfill, Cat. No. ASF1000A-4145 • BioRad TC10 cell counter, Cat. No. 145-0010 Assay Procedures
Cells Scaled Up from Frozen Vials • APOL1 G1 3.25 (HEK293 T-Rex) frozen vials: 5 million cells per vial • Step 1, Day 1: Defrost frozen vial into T-225. • Step 2, Day 5: (when 85% confluent): Split one T-225 at 3×10^6 cells per flask. • Step 3, Day 8: Splits cells to set up for the assay plates as described below.
T-Rex APOL1 HEK cells are split twice per week to keep the confluence state below 85% of the culture flask surface area. Cells can be kept until passage 25. • Cell Culture Medium • DMEM high glucose +10% FBS, +P/S, +5 μg/mL blasticidin, +1 μg/mL puromycin. • 500 mL DMEM, +55 mL FBS, +5 mL P/S, +280 μL blasicidin 10 mg/mL, +56 μL Puromycin 10 mg/mL. • Assay Media • Opti-MEM reduced serum medium from Invitrogen.
Preparation of Cell Assay Plates • Culture medium is removed from the x cm^2 T-flask by aspiration. • The cell monolayer is rinsed with PBS 1× at room temperature. PBS is removed by aspiration. • Cells are trypsinized using Trypsin. • The flasks are incubated at room temperature for 2-3 minutes. • Complete DMEM medium is then added. Cell suspension is then transferred to a 50 mL Falcon polypropylene tube. • Cells are then counted using a Biorad TC10 cell counter and the required amount of cells are centrifuged at 1200 RPM for 5 minutes. Required amount is 1.3×10^6 cells/mL APOL1 T-Rex HEK cells. • The pellet is suspended in the assay medium. • Using the MultiDrop, add 20 μL to each well (corresponds to 26000 cells total per well) of a 384-well black, transparent, flat bottom Poly-D coated plate. • Tetracycline as prepared in the following section is added to the cells before plating to induce APOL1 expression. • Plates are left at room temperature for 20 to 30 minutes before incubation at 37° C. and 5% CO2. […]

SMILES | IC50 [µM]
Cc1c(F)ccc2c(CCC(=O)N[C@@H]3C(=O)NC[C@H]3O)c(-c3ccccc3)[nH]c12 [Compound 84] | < 0.25
C[C@@H](Cc1c(-c2ccc(F)cc2)[nH]c2c(F)cc(F)cc12)C(=O)N[C@H]1CCNC1=O [Compound 90, (2S)-3-[5,7-difluoro-2-(4-fluorophenyl)-1H-indol-3-yl]-2-methyl-N-[(3S)-2-oxopyrrolidin-3-yl]propanamide] | > 1
C[C@@H](Cc1c(-c2ccc(F)cc2)[nH]c2c(F)cc(F)cc12)C(=O)N[C@@H]1C(=O)NC[C@H]1O [Compound 91, (2S)-3-[5,7-difluoro-2-(4-fluorophenyl)-1H-indol-3-yl]-N-[(3S,4R)-4-hydroxy-2-oxo-pyrrolidin-3-yl]-2-methyl-propanamide] | 0.25 to 1
O=C(N[C@@H]1C(=O)NC[C@H]1O)[C@H](O)Cc1c(-c2ccc(F)cc2)[nH]c2c(F)cc(F)cc12 [Compound 92, (2R)-3-[5,7-difluoro-2-(4-fluorophenyl)-1H-indol-3-yl]-2-hydroxy-N-[(3S,4R)-4-hydroxy-2-oxo-pyrrolidin-3-yl]propanamide] | > 1
O=C(N[C@H]1CCNC1=O)[C@H](O)Cc1c(-c2ccc(F)cc2)[nH]c2c(F)cc(F)cc12 [Compound 93, (2R)-3-[5,7-difluoro-2-(4-fluorophenyl)-1H-indol-3-yl]-2-hydroxy-N-[(3S)-2-oxopyrrolidin-3-yl]propanamide] | > 1
O=C1NC[C@@H](O)[C@@H]1NC(=O)[C@@H](O)Cc1c(-c2ccc(F)cc2)[nH]c2c(F)cc(F)cc12 [Compound 94, (2S)-3-[5,7-difluoro-2-(4-fluorophenyl)-1H-indol-3-yl]-2-hydroxy-N-[(3S,4R)-4-hydroxy-2-oxo-pyrrolidin-3-yl]propanamide] | > 1
O=C(CCc1c(-c2ccc(F)cc2)[nH]c2c(C(F)F)cc(F)cc12)N[C@@H]1C(=O)NC[C@H]1O [Compound 100, 3-[7-(difluoromethyl)-5-fluoro-2-(4-fluorophenyl)-1H-indol-3-yl]-N-[(3S,4R)-4-hydroxy-2-oxo-pyrrolidin-3-yl]propanamide] | < 0.25
O=C(CCc1c(-c2ccc(F)cc2)[nH]c2c(F)cc(OC(F)F)cc12)N[C@@H]1C(=O)NC[C@H]1O [Compound 106] | < 0.25
O=C(CCc1c(-c2ccc(F)cc2)[nH]c2c(C(F)(F)F)cccc12)N[C@@H]1C(=O)NC[C@H]1O [Compound 111, 3-[2-(4-fluorophenyl)-7-(trifluoromethyl)-1H-indol-3-yl]-N-[(3S,4R)-4-hydroxy-2-oxo-pyrrolidin-3-yl]propanamide] | < 0.25
O=C(CCc1c(-c2ccc(F)cc2)[nH]c2ccccc12)N[C@H]1C(=O)NC[C@@H]1O [Compound 134, 3-[2-(4-fluorophenyl)-1H-indol-3-yl]-N-[(3R,4S)-4-hydroxy-2-oxo-pyrrolidin-3-yl]propanamide] | > 1
O=C(CCc1c(-c2ccc(F)cc2)[nH]c2ccccc12)N[C@@H]1C(=O)NC[C@@H]1O [Compound 135, 3-[2-(4-fluorophenyl)-1H-indol-3-yl]-N-[(3S,4S)-4-hydroxy-2-oxo-pyrrolidin-3-yl]propanamide] | > 1

Next, values leading:

IC50 [µM] | SMILES
< 0.25 | O=C(CCc1c(-c2ccc(Cl)cc2)[nH]c2c(Cl)cccc12)N[C@@H]1C(=O)NC[C@H]1O [Compound 113, 3-[7-chloro-2-(4-chlorophenyl)-1H-indol-3-yl]-N-[(3S,4R)-4-hydroxy-2-oxo-pyrrolidin-3-yl]propanamide]
< 0.25 | O=C(CCc1c(-c2ccc(OC(F)F)cc2)[nH]c2ccccc12)N[C@@H]1C(=O)NC[C@H]1O [Compound 117]
0.25 to 1 | Cc1cc(F)ccc1-c1[nH]c2ccccc2c1CCC(=O)N[C@@H]1C(=O)NC[C@H]1O [Compound 119]
< 0.25 | O=C(CSc1c(-c2ccc(F)cc2)[nH]c2ccccc12)N[C@@H]1C(=O)NC[C@H]1O [Compound 130, 2-[[2-(4-fluorophenyl)-1H-indol-3-yl]sulfanyl]-N-[(3S,4R)-4-hydroxy-2-oxo-pyrrolidin-3-yl]acetamide]
< 0.25 | O=C(CCc1c(-c2ccccc2)[nH]c2c(C(F)(F)F)cc(F)cc12)N[C@@H]1C(=O)NC[C@H]1O [Compound 132, 3-[5-fluoro-2-phenyl-7-(trifluoromethyl)-1H-indol-3-yl]-N-[(3S,4R)-4-hydroxy-2-oxo-pyrrolidin-3-yl]propanamide]
0.25 to 1 | O=C(CCc1c(-c2ccc(F)cc2)[nH]c2ccccc12)N[C@H]1C(=O)NC[C@H]1O [Compound 133, 3-[2-(4-fluorophenyl)-1H-indol-3-yl]-N-[(3R,4R)-4-hydroxy-2-oxo-pyrrolidin-3-yl]propanamide]
